Laboratory results published in PubChem BioAssay AID256 (DTP/NCI, 2004).
Inconclusive results and toxic doses are left out. How the source made its calls: active means survival T/C of 150% or more; inactive means T/C below 125% in these data.

Test system: CD2F1 mice, L1210 leukemia ip, survival T/C
Assay: NCI In Vivo Anticancer Drug Screen. Data for tumor model L1210 Leukemia (intraperitoneal) in CD2F1 (CDF1) mice
Details: endpoint: mean survival time, higher = longer survival
Outline: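 Ratio T/C, where T is the treated-group value and C the vehicle-dosed control value, from mice implanted with a transplantable tumor.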

[1] = dose: 100.0 mg/kg/injection, schedule: Q04DX002 (ip), vehicle: saline with Tween-80
[2] = dose: 100.0 mg/kg/injection, schedule: Q01DX009 (ip), vehicle: saline
[3] = dose: 200.0 mg/kg/injection, schedule: Q01DX009 (ip), vehicle: saline
[4] = dose: 400.0 mg/kg/injection, schedule: Q01DX009 (ip), vehicle: saline
[5] = dose: 100.0 mg/kg/injection, schedule: Q01DX009 (ip), vehicle: saline with Tween-80
[6] = dose: 200.0 mg/kg/injection, schedule: Q01DX009 (ip), vehicle: saline with Tween-80
[7] = dose: 100.0 mg/kg/injection, schedule: Q01DX001 (ip), vehicle: saline with Tween-80
[8] = dose: 200.0 mg/kg/injection, schedule: Q01DX001 (ip), vehicle: saline with Tween-80
[9] = dose: 400.0 mg/kg/injection, schedule: Q01DX001 (ip), vehicle: saline with Tween-80
[10] = dose: 50.0 mg/kg/injection, schedule: Q01DX009 (ip), vehicle: saline with Tween-80
[11] = dose: 100.0 mg/kg/injection, schedule: Q04DX003 (ip), vehicle: saline with Tween-80
[12] = dose: 200.0 mg/kg/injection, schedule: Q04DX003 (ip), vehicle: saline with Tween-80
[13] = dose: 400.0 mg/kg/injection, schedule: Q04DX003 (ip), vehicle: saline with Tween-80
[14] = dose: 100.0 mg/kg/injection, schedule: Q04DX003 (ip), vehicle: Klucel (hydroxypropylcellulose) (HPC)
[15] = dose: 200.0 mg/kg/injection, schedule: Q04DX003 (ip), vehicle: Klucel (hydroxypropylcellulose) (HPC)
[16] = dose: 100.0 mg/kg/injection, schedule: Q04DX003 (ip), vehicle: saline
[17] = dose: 200.0 mg/kg/injection, schedule: Q04DX003 (ip), vehicle: saline
[18] = dose: 400.0 mg/kg/injection, schedule: Q04DX003 (ip), vehicle: saline

Measured: T/C

CCOC(=O)C(C)C(=O)NCc1ccccc1 (stereo not given)
inactive: dose: 25.0 mg/kg/injection, schedule: Q01DX009 (ip), vehicle: Klucel (hydroxypropylcellulose) (HPC) 95 % of control | dose: 50.0 mg/kg/injection, schedule: Q01DX009 (ip), vehicle: Klucel (hydroxypropylcellulose) (HPC) 96 % of control | dose: 100.0 mg/kg/injection, schedule: Q01DX009 (ip), vehicle: Klucel (hydroxypropylcellulose) (HPC) 96 % of control | dose: 200.0 mg/kg/injection, schedule: Q01DX009 (ip), vehicle: Klucel (hydroxypropylcellulose) (HPC) 93 % of control | dose: 400.0 mg/kg/injection, schedule: Q01DX009 (ip), vehicle: Klucel (hydroxypropylcellulose) (HPC) 98 % of control

CCCOc1cc[n+]([O-])c2ccccc12
inactive: [1] 94 % of control | dose: 200.0 mg/kg/injection, schedule: Q04DX002 (ip), vehicle: saline with Tween-80 94 % of control

CCOC(=O)C(F)(F)F
inactive: [2] 95 % of control | [3] 103 % of control | [4] 95 % of control

C#CCCO
inactive: dose: 25.0 mg/kg/injection, schedule: Q01DX009 (ip), vehicle: saline 113 % of control | dose: 50.0 mg/kg/injection, schedule: Q01DX009 (ip), vehicle: saline 98 % of control | [2] 105 % of control

CN(C)C(=O)c1ccc(Cl)c(Cl)c1
inactive: [5] 102 % of control | [6] 107 % of control

O=[N+]([O-])c1ccc(/C=C/c2ccc([N+](=O)[O-])cc2S(=O)(=O)O)c(S(=O)(=O)O)c1
inactive: [5] 102 % of control | [6] 105 % of control | dose: 400.0 mg/kg/injection, schedule: Q01DX009 (ip), vehicle: saline with Tween-80 94 % of control

CCc1cc2c(cc1C(=O)/C=C\c1cccc3ccccc13)C(C)(C)CCC2(C)C
inactive: dose: 6.25 mg/kg/injection, schedule: Q01DX009 (ip), vehicle: saline with Tween-80 94 % of control | dose: 12.5 mg/kg/injection, schedule: Q01DX009 (ip), vehicle: saline with Tween-80 86 % of control | dose: 25.0 mg/kg/injection, schedule: Q01DX009 (ip), vehicle: saline with Tween-80 93 % of control

COc1ccc(C(O)(c2ccccc2)C(OC(=O)c2cc([N+](=O)[O-])cc([N+](=O)[O-])c2)c2ccccc2)cc1 (stereo not given)
inactive: [7] 87 % of control | [8] 94 % of control | [9] 91 % of control

C=C(C)CC(O)CCCCCC (stereo not given)
inactive: [10] 98 % of control | [5] 110 % of control | [6] 107 % of control

Cc1cc(N)c(C)c([N+](=O)[O-])c1
inactive: [11] 103 % of control | [12] 101 % of control | [13] 92 % of control

CCOC(=O)Nc1cc(Nc2ccccc2)c(N)c(N)n1
inactive: dose: 100.0 mg/kg/injection, schedule: Q01DX001 (ip), vehicle: saline 88 % of control | dose: 200.0 mg/kg/injection, schedule: Q01DX001 (ip), vehicle: saline 94 % of control

c1ccc2c(c1)Sc1ccccc1N2CCCNC1=NCCO1
inactive: dose: 25.0 mg/kg/injection, schedule: Q04DX002 (ip), vehicle: saline with Tween-80 97 % of control | dose: 50.0 mg/kg/injection, schedule: Q04DX002 (ip), vehicle: saline with Tween-80 94 % of control | [7] 89 % of control | [1] 94 % of control

CN1C(=O)CC(c2ccc(NC(=O)CI)cc2)C1=O (stereo not given)
inactive: dose: 6.25 mg/kg/injection, schedule: Q04DX002 (ip), vehicle: saline with Tween-80 92 % of control | dose: 12.5 mg/kg/injection, schedule: Q04DX002 (ip), vehicle: saline with Tween-80 96 % of control

CC1([N+](=O)[O-])COC(c2ccc(Cl)cc2)OC1 (stereo not given)
inactive: [14] 96 % of control | [15] 104 % of control

C#CCOC(=O)Nc1ccccc1Cl
inactive: [14] 93 % of control | [15] 105 % of control | dose: 400.0 mg/kg/injection, schedule: Q04DX003 (ip), vehicle: Klucel (hydroxypropylcellulose) (HPC) 98 % of control

OC1CCCC2OC12 (stereo not given)
inactive: [16] 93 % of control | [17] 96 % of control | [18] 93 % of control

CC#CC(=O)OC
inactive: [10] 104 % of control | [5] 104 % of control | [6] 96 % of control

CC(C)C1=CC2=CCC3C(C)(CN)CCCC3(C)C2CC1CCN (stereo not given)
inactive: dose: 1.25 mg/kg/injection, schedule: Q01DX009 (ip), vehicle: saline with Tween-80 101 % of control | dose: 2.5 mg/kg/injection, schedule: Q01DX009 (ip), vehicle: saline with Tween-80 97 % of control | dose: 5.0 mg/kg/injection, schedule: Q01DX009 (ip), vehicle: saline with Tween-80 94 % of control

CC1SCCCS1
inactive: dose: 12.5 mg/kg/injection, schedule: Q04DX003 (ip), vehicle: other 106 % of control | dose: 25.0 mg/kg/injection, schedule: Q04DX003 (ip), vehicle: other 104 % of control | dose: 50.0 mg/kg/injection, schedule: Q04DX003 (ip), vehicle: other 102 % of control | dose: 100.0 mg/kg/injection, schedule: Q04DX003 (ip), vehicle: other 102 % of control | dose: 200.0 mg/kg/injection, schedule: Q04DX003 (ip), vehicle: other 97 % of control

CC1(C)SC(C(NC(=O)COc2ccccc2)C(=O)O)NC1C(=O)O (stereo not given)
inactive: [11] 97 % of control | [12] 97 % of control

C=CC1=NC(C)(C)CC(C)O1 (stereo not given)
inactive: dose: 0.78 mg/kg/injection, schedule: Q01DX009 (ip), vehicle: water 104 % of control | dose: 1.56 mg/kg/injection, schedule: Q01DX009 (ip), vehicle: water 102 % of control | dose: 3.13 mg/kg/injection, schedule: Q01DX009 (ip), vehicle: water 105 % of control | dose: 6.25 mg/kg/injection, schedule: Q01DX009 (ip), vehicle: water 104 % of control | dose: 12.5 mg/kg/injection, schedule: Q01DX009 (ip), vehicle: water 100 % of control

CCCCCCCCCCCCCCCc1cc(=O)n(-c2ccc(C(=O)OCC)cc2)n1C
inactive: [5] 92 % of control | [11] 97 % of control | [6] 86 % of control | [12] 88 % of control | [13] 100 % of control

Cc1ncc2c(=O)[nH]cnc2n1
inactive: [11] 93 % of control | [12] 91 % of control | [13] 90 % of control

CC(C)N=C1N(C(C)C)C([O-])=N[N+]1(C)C
inactive: [2] 101 % of control | [16] 108 % of control | [3] 101 % of control | [17] 96 % of control | [4] 101 % of control | [18] 107 % of control

CCOC(=O)CNc1nc(Cl)nc(NCC(=O)OCC)n1
inactive: [7] 87 % of control | [8] 89 % of control | [9] 91 % of control

CCC(C)C1NC(=O)C(NC(=O)c2c3nc4c(C(=O)NC5C(=O)NC(C(C)CC)C(=O)N6CCCC6C(=O)N(C)CC(=O)N(C)C(C(C)C)C(=O)OC5C)cc([N+](=O)[O-])c(C)c4oc-3c(C)c(=O)c2N)C(C)OC(=O)C(C(C)C)N(C)C(=O)CN(C)C(=O)C2CCCN2C1=O (stereo not given)
inactive: dose: 0.05 mg/kg/injection, schedule: Q01DX009 (ip), vehicle: water 107 % of control | dose: 0.1 mg/kg/injection, schedule: Q01DX009 (ip), vehicle: water 116 % of control | dose: 0.2 mg/kg/injection, schedule: Q01DX009 (ip), vehicle: water 112 % of control | dose: 0.4 mg/kg/injection, schedule: Q01DX009 (ip), vehicle: water 94 % of control
